Measured values published in patent publication US20200009088A1, “COMPOSITIONS AND METHODS FOR TREATING ANDROGEN-INDEPENDENT CANCER” (The Regents of the University of California, priority 2017, published 2020).

Assays:
[1] = tested on: AR-V3; experiment: PSA-luc assay in C4-2B cells, AR-V3; type: cell-based; details: FBS, 1 μM overnight, FIG. 14C
Source text: C4-2B cells were cotransfected with pcDNA, with or without AR-V1, AR-V3, AR-V7, AR-V9 or AR-V12, and with PSA-E/P-luciferase plasmids in FBS condition.

[2] = tested on: AR variants; experiment: AR variant protein degradation (cycloheximide, MG132, ubiquitin IP) in CWR22Rv1 cells; type: cell-based; details: FIG. 15
Method: (§1) “AR-Variants” represents a combination of all forms of AR.
(§2) To determine if the small molecule modulators affect AR-V7 protein expression via protein degradation, CWR22Rv1 and C4-2B MDVR cells were treated with cycloheximide (CHX) and the half-life of AR-V7 protein was measured.
After 0, 2, 4, and 8 hours, whole cell lysate was collected and subjected to Western blot. The half-life of AR-V7 was then calculated.
Subsequently, the whole cell lysate was collected and subjected to Western blot.
For the data shown in FIG. 15C, CWR22Rv1 cells were treated with Nic, Compound 7, or Compound 31. Subsequently, whole cell lysate was immunoprecipitated with an AR antibody and blotted with ubiquitin and AR antibodies.

[3] = in vivo; details: for Cmax: rat plasma, p.o. 200 mg/kg
Method: Blood samples were obtained at the time points indicated in FIG. 18 (0 minutes, 15 minutes, 30 minutes, 1 hour, 1.5 hours, 2 hours, 4 hours, 6 hours, 8 hours, and 24 hours) and the plasma was isolated for LC-MS analysis.

[4] = tested on: C4-2BMDVR cells; experiment: ELISA cell death (apoptosis) assay; type: cell-based; details: compound alone, analogs compared with niclosamide, FIG. 8
Method: To further examine the anti-cancer effects of these compounds, an ELISA cell death assay was performed.

[5] = tested on: AR variants; experiment: AR variant protein degradation (cycloheximide, MG132, ubiquitin IP) in C4-2B MDVR cells; type: cell-based; details: FIG. 16
Method: as §1, §2
After 0, 2, 4, and 8 hours, whole cell lysate was collected and subjected to Western blot. Half-life of AR-V7 was then calculated.
Whole cell lysate was subsequently collected and subjected to Western blot.
Whole cell lysate was immunoprecipitated with an AR antibody and blot with ubiquitin and AR antibodies.

[6] = tested on: C4-2B AbiR cells; experiment: Cell growth assay (cell numbers), C4-2B AbiR; type: cell-based; details: 48 hours, FIG. 7C
[7] = tested on: C4-2-V7 cells; experiment: Cell growth assay (cell numbers), C4-2-V7; type: cell-based; details: 48 hours, FIG. 7D
[8] = tested on: C4-2B MDVR cells; experiment: Cell growth assay (cell numbers), C4-2B MDVR; type: cell-based; details: C4-2B MDVR, 48 hours
[9] = tested on: CWR22Rv1 cells; experiment: Cell growth assay (cell numbers), CWR22Rv1; type: cell-based
[10] = male, Sprague-Dawley, rat, in vivo, po, 200 mg/kg
[11] = male, Sprague-Dawley, rat, plasma, po, 200 mg/kg

In the case of `O=C(Nc1ccc([N+](=O)[O-])cc1Cl)c1cc(Cl)ccc1O` [niclosamide, (5-chloro-N-2-chloro-4-nitro-phenyl)-2-hydroxybenzamide, reference compound], the “AR-V3-mediated PSA-luc activity” value [1] is reported as “inhibited”, the “AR variant degradation via the proteasome-ubiquitination system” value [2] is reported as “degraded” and the “AUC_% Extrap_obs” value [3, 10] is reported as 3.67 +/− 3.73%. The HL_Lambda_z [3, 10] was 328.09 ± 173.05 min, the AUC(0-inf) [3, 11] was 28.4 µM·h and the AUC(0-t) [3, 11] was 4.14 µM·h. The Tmax [3, 11] was 25 min, the Cmax ([3]; male, Sprague-Dawley, rat, plasma, po, 200 mg/kg, Cmax) was 1560 nM and the Cmax [3] was 1560 nM. The cell apoptosis [4] was “significantly induced”, the “AR variant degradation via the proteasome-ubiquitination system” value [5] was “degraded” and the “cell proliferation, combination with enzalutamide (MDV)” value (“cell proliferation, combination” below) ([6]; 0.5 μM + enzalutamide) was “further inhibited”. The cell growth ([6]; 0.5 μM) was “significantly inhibited”, the “cell proliferation, combination” value ([7]; C4-2-V7, 0.5 μM + enzalutamide) was “further inhibited” and the cell growth ([7]; C4-2-V7, 0.5 μM) was “significantly inhibited”. For the same compound, the “cell proliferation, combination” value ([8]; 0.5 μM + enzalutamide, FIG. 7B) was “further inhibited”, the cell growth ([8]; 0.5 μM, FIG. 7B) was “significantly inhibited” and the cell growth ([8]; increasing doses of niclosamide/analogs, FIG. 6) was “able to inhibit cell growth in a dose-dependent manner”. For the same compound, the “cell proliferation, combination” value ([9]; CWR22Rv1, 0.5 μM + enzalutamide, 48 hours, FIG. 7A) was “further inhibited”, the cell growth ([9]; CWR22Rv1, 0.5 μM, 48 hours, FIG. 7A) was “significantly inhibited” and the cell growth ([9]; CWR22Rv1, 48 hours, increasing doses of niclosamide/analogs, FIG. 6) was “able to inhibit cell growth in a dose-dependent manner”.
